The source of these data is patent publication US8293781B2, “Indole derivatives having cPLA2 inhibiting activity and applications and production methods of the same” (Daiichi Sankyo Company, Limited, priority 2007, dated 2012).

Structures can show the parent of a compound that is named as a salt.

For orientation: IC50 means the concentration needed to halve the response being measured.

For experiment [1], the system named is PGE2 production in mouse peritoneal exudate cells. Description: LPS-induced PGE2 production system using mouse peritoneal exudate cells. It counts as cell-based. The note with it: LPS 10 μg/ml, 6 hours. The procedure: For evaluation of the PGE2 production inhibiting activity, the lipopolysaccharide (LPS)-induced PGE2 production system using mouse peritoneal exudate cells with reference to the method of Kim et al. (see Kim, Y K et al., Biol Pharm Bull 25: 472, 2002) was used. That is, 2 ml of thioglycolate solution (made by Sigma, Brewer's Thioglycorate medium) per mice were intraperitoneally administered to 8-week old female C3H/HeN mice (Charles River Japan). After 4 days, a phosphate buffer saline (PBS) 5 ml was used to wash the abdominal cavity and the infiltrating cells were recovered. The recovered cells were suspended in a predetermined concentration in an RPMI1640 medium (Nacalai Tesque) containing 10% bovine fetal serum (BioWhittaker) and 10 μg/ml gentamycin (Invitrogen).
The infiltrating cell suspension 100 μl containing 2×10^5 cells per well was inoculated in a 96-well culture plate, then the test compound solution or solvent 50 μl was added. Under conditions of 5% CO2 and 37° C., this was precultured for 15 minutes, then LPS (made by Sigma: L-4524) solution 50 μl (final concentration of LPS of 10 μg/ml) was added, and the mixture was cultured for a further 6 hours. After the end of the culture, the culture supernatant was recovered and the PGE2 concentration in the supernatant was measured using an EIA kit (made by Amersham). Based on the measurement value, the test compound concentration suppressing 50% of the PGE2 production at the time of non-addition of a compound (IC50 value) was calculated.

The subject of experiment [2] is TPA-induced mouse dermatitis model. Description: TPA-induced mouse dermatitis model (ear thickness). It counts as in vivo. To be noted: 50 mg/kg orally 30 minutes before TPA, 6 hours after TPA, C57BL/6 mice. On the procedure: Phorbol ester (TPA) was applied to the ear to elicite acute inflammation having ear edema as a main symptom. In the present test model, it is known that arachidonic acid metabolites, constituting various lipid mediators, are involved in inflammation. By this Experiment, it is possible to evaluate the anti-inflammatory action in vivo of anti-inflammatory drugs acting on the arachidonic acid cascade.
The Experiment was performed with reference to the method of Chang et al. (see Chang J., Eur J Pharmacol 142: 197, 1987). That is, the ear of female C57BL/6 mice (Charles River Japan) were painted with 20 μl of TPA in an acetone solution (concentration 50 μg/ml) to induce dermatitis at the ear. The ear thicknesses before application of TPA and 6 hours after application of TPA were measured using a dial gauge and the increase in ear thickness caused by inflammation was calculated. The test compound or the 0.5% hydroxypropyl cellulose solution as vehicle was administered orally to the mice 30 minutes before application of TPA. Note that the number of mice used in the test was made six per group.
Based on the measurement value, the action of each test compound in suppressing the increase in ear thickness due to application of TPA was evaluated.

Experiment [3] concerns Cys-LTs production in rat mast cell like cell line RBL-2H3. Description: Calcium ionophore-induced Cys-LTs production system using RBL-2H3. The note with it: 1 h, RBL-2H3, A23187 5 μM, one hour. It counts as cell-based. The procedure:
(§1) For the evaluation by LTB4 and Cys-LTs production inhibiting activity, the calcium ionophore-induced LTB4 and Cys-LTs production system using the rat mast cell like cell line RBL-2H3 with reference to the method of Ishiwara et al. (see Ishiwara M. et al., J Pharmacol Exp Ther 307: 583, 2003) was used. That is, rat mast cell like cell line RBL-2H3 cells were suspended in Dulbecco's modified Eagle's medium (Nacalai Tesque) containing 10% bovine fetal serum (BioWhittaker) and 10 μg/ml gentamycin (Invitrogen). The infiltrating cell suspension 200 μl containing 1×10^5 cells per well was inoculated to 96-well culture plate and cultured over night under conditions of 5% CO2 and 37° C. The culture supernatant was removed, then the test compound solution or solvent 50 μl was added. After 30 minutes preculture, calcium ionophore (A23187) was added to a final concentration of 5 μM to induce leukotriene production.
(§2) One hour after calcium ionophore stimulus, the culture supernatant was recovered and the amounts of LTB4 and Cys-LTs in the supernatant were measured using an EIA kit (made by Amersham). Based on the measurement values, the test compound concentrations suppressing 50% of the mediator production at the time of non-addition of a compound (IC50 value) were calculated.

Experiment [4] concerns LTB4 production in rat mast cell like cell line RBL-2H3. Nature of the experiment: Calcium ionophore-induced LTB4 production system using RBL-2H3. It counts as cell-based. To be noted: 1 h, RBL-2H3, A23187 5 μM, one hour. On the procedure: as §1, §2

`O=C(O)CCc1ccc2c(c1)c(CCc1ccccc1)cn2-c1ccc(O)cc1` [Example 126, 3-[1-(4-hydroxyphenyl)-3-(2-phenylethyl)-1H-indol-5-yl]propanoic acid]: the IC50 in experiment [1] was determined as 540 nM; in experiment [3], 4170 nM; in experiment [4], 770 nM. Moreover, in experiment [2], the “Suppression rate of increase in ear thickness” value (“Suppression rate of increase” below) is 27.6%.
With `O=C(O)CCc1ccc2c(c1)c(CCc1ccccc1)cn2-c1ccc(F)cc1` [Example 187, 3-[1-(4-fluorophenyl)-3-(2-phenylethyl)-1H-indol-5-yl]propanoic acid], the IC50 turned out to be 280 nM in experiment [1], 890 nM in experiment [3] and 260 nM in experiment [4]. Besides, the “Suppression rate of increase” value in experiment [2] is reported as 25.4%.
For `O=C(O)CCc1ccc2c(c1)c(CCc1ccccc1)cn2-c1ccc(OC(F)F)cc1` [Example 190, 3-{1-[4-(difluoromethoxy)phenyl]-3-(2-phenylethyl)-1H-indol-5-yl}propanoic acid 2-amino-2-(hydroxymethyl)propane-1,3-diol salt (1:1)], in that order: 850 nM, 1060 nM, 380 nM and 27.6%.
On the same counts, the results for `COCc1ccc(-n2cc(CCc3ccccc3)c3cc(CCC(=O)O)ccc32)cc1` [Example 217, 3-{1-[4-(methoxymethyl)phenyl]-3-(2-phenylethyl)-1H-indol-5-yl}propanoic acid 2-amino-2-(hydroxymethyl)propane-1,3-diol salt (1:1)] are 1700 nM, 1260 nM, 500 nM and 22.8%.
On the same counts, the results for `O=C(O)CCc1ccc2c(c1)c(CCc1ccccc1)cn2-c1ccc(OCCO)cc1` [Example 229, 3-{1-[4-(2-hydroxyethoxy)phenyl]-3-(2-phenylethyl)-1H-indol-5-yl}propanoic acid 2-amino-2-(hydroxymethyl)propane-1,3-diol salt (1:1)] are 800 nM, 400 nM, 20 nM and 23.9%.
Consider `O=C(O)CCc1ccc2c(c1)c(CCc1ccccc1)cn2-c1ccc(Oc2ccccc2)cc1` [Example 231, 3-[1-(4-phenoxyphenyl)-3-(2-phenylethyl)-1H-indol-5-yl]propanoic acid 2-amino-2-(hydroxymethyl)propane-1,3-diol salt (1:1)], for which the IC50 in experiment [1] turned out to be 500 nM; in experiment [3] it was 300 nM; in experiment [4] it was 180 nM. For the same compound, in experiment [2], the “Suppression rate of increase” value came to 30.4%.
